Results reported in patent US20120328719A1, “EXTERNAL PREPARATION FOR SKIN” (Shiseido Company, Ltd., priority 2010, published 2012).

What was measured:
[1] = system: skin model (EFT-400, MatTek Corp.); test: Immunostaining of skin models; format: cell-based; conditions: skin model sections, vs control group; for expression level of heparan sulfate (immunostaining): days 4 and 8 of culturing, FIG. 4E-4H; for expression level of loricrin (immunostaining): FIG. 5A-5D; for expression level of filaggrin (immunostaining): FIG. 5E-5H
Protocol: A skin model (EFT-400, MatTek Corp.) was cultured in a special-purpose medium (EFT-400-ASY, MatTek Corp.). Dimethylsulfoxide (DMSO) and ethanol were added to the special-purpose medium to a final concentration of 0.1% for use as a control group, 50 mM 1-[4-(1H-benzoimidazol-2-yl)-phenyl]-3-[4-(1H-benzoimidazol-2-yl)-phenyl]urea (solvent: DMSO) were added to the special-purpose medium to a final concentration of 50 μM for use as a heparanase inhibitor group, 10 mM N-hydroxy-2-[[(4-methoxyphenyl)sulfonyl](3-picolyl)amino]-3-methylbutaneamide hydrochloride (CGS27023A, solvent: ethanol) were added to the special-purpose medium to a final concentration of 10 μM for use as an MMP inhibitor group, and 50 mM 1-[4-(1H-benzoimidazol-2-yl)-phenyl]-3-[4-(1H-benzoimidazol-2-yl)-phenyl]urea (solvent: DMSO) and 10 mM CGS27023A (solvent: ethanol) were added to the special-purpose medium to final concentrations of 50 μM and 10 μM, respectively, for use as a combination heparanase inhibitor+metalloproteinase (MMP) inhibitor group. The medium was replaced daily at 2 mL/well, and the skin model was recovered and used for experimentation on days 4 and 8 of culturing. In addition, during replacement of the medium, all of the culture fluid was collected and stored at −80° C.° for use in the experiments described below.
The skin models following culturing were cut in half with a scalpel and placed in acetone at 4° C. followed by allowing to stand undisturbed for 48 hours at 4° C. The solution was replaced with acetone, methyl benzoate and xylene in that order followed by embedding in paraffin to prepare paraffin blocks in accordance with the AMeX method. Tissue sections having a thickness of 3 μm were prepared followed by immunostaining with perlecan (FIGS. 4A to 4D), heparan sulfate (FIGS. 4E to 4H), loricrin (FIGS. 5A to 5D), filaggrin (FIGS. 5E to 5H) and Ki67 (FIG. 6) on days 4 and 8 of culturing. […] In addition, in the groups containing heparanase inhibitor, the presence of proliferative cells positive for Ki67 was clearly determined to be maintained.

[2] = Measurement of moisture transpiration rate constants (filter paper weight loss); format: physicochemical; conditions: 10 μl on filter paper, slope 3 to 8 min, FIG. 3
Protocol: Heparan sulfate (n=5), chondroitin sulfate A (n=5), chondroitin sulfate B (n=5), keratan sulfate (n=5) and hyaluronic acid (n=5) were dissolved in MilliQ to prepare 0.2% aqueous solutions of each, and 5.0% glycerin (n=5) and MilliQ were prepared for use as a comparative sample (n refers to the respective number of samples). Filter paper cut to a size of 2 cm×2 cm was placed on a balance, and the filter paper was impregnated with 10 μl of each solution followed by measuring the weight of the filter paper for 8 minutes at 1 minute intervals. The weight (mg) of the filter paper from 3 to 8 minutes after the start of measurement was plotted on the vertical axis, elapsed time (min) was plotted on the horizontal axis, and the slope (mg/min) of the resulting line was calculated as the moisture transpiration rate constant (FIG. 3).

[3] = system: skin model (EFT-400, MatTek Corp.); test: Measurement of hyaluronic acid levels in cultured skin model; format: cell-based; conditions: heparanase inhibitor 50 μM, CGS27023A 10 μM, FIG. 1B
Protocol: A skin model (EFT-400, MatTek Corp.) was cultured in a special-purpose medium (EFT-400-ASY, MatTek Corp.). […]
Measurement of hyaluronic acid levels was carried out on the aforementioned cultured control group (n=5), MMP inhibitor group (n=5), heparanase inhibitor group (n=5) and combination MMP inhibitor+heparanase inhibitor group (n=5) (n refers to the number of each skin model used in testing). […] The culture supernatants stored at −80° C. were then thawed and hyaluronic acid levels in these solutions were then measured with a hyaluronic acid assay kit (Seikagaku Corp.).

COc1ccc(S(=O)(=O)N(Cc2cccnc2)C(C(=O)NO)C(C)C)cc1.Cl (stereo not drawn) [MMP inhibitor, N-hydroxy-2-[[(4-methoxyphenyl)sulfonyl](3-picolyl)amino]-3-methylbutaneamide hydrochloride]
expression level of heparan sulfate (immunostaining) [1]: increased
expression level of loricrin (immunostaining) [1]: increased
expression level of filaggrin (immunostaining) [1]: increased

OCC(O)CO [glycerin]
moisture transpiration rate constant ([2]; 5.0% glycerin comparative sample): roughly the same

O=C(Nc1ccc(-c2nc3ccccc3[nH]2)cc1)Nc1ccc(-c2nc3ccccc3[nH]2)cc1 [heparanase inhibitor, 1-[4-(1H-benzoimidazol-2-yl)-phenyl]-3-[4-(1H-benzoimidazol-2-yl)-phenyl]urea]
hyaluronic acid levels in culture supernatant [3]: significant decreases
expression level of heparan sulfate (immunostaining) [1]: increased
expression level of loricrin (immunostaining) [1]: increased
expression level of filaggrin (immunostaining) [1]: increased

hyaluronic acid
moisture transpiration rate constant ([2]; 0.2% aqueous solution): remarkably low
